According to patent publication US9351955B2, “Compounds and pharmaceutical compositions thereof for the treatment of cystic fibrosis” (Galapagos NV, priority 2013, dated 2016):
Values joined by “and” are separate entries in the source; they are usually repeats but may differ in a detail not shown here. Equal entries are not always repeated.

Columns and labels:
CFTR G551D mutant = target: T1, CFTR G551D mutant (Homo sapiens, UniProt P13569, G551D); assay: YFP-halide influx assay for the CFTR-G551D mutation (HEK293 cells); format: cell-based; conditions: HEK293 cells expressing CFTR G551D and YFP reporter; forskolin 10.67 μM; read-out: EC50 measured by YFP-halide influx assay for the CFTR-G551D
T1 construct: expressed in transfected cells; host or cells: HEK293 (reverse transfection with plasmids)
Procedure, shortened: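 HEK293 cells reverse-transfected with CFTR G551D and halide-sensitive YFP, expressed 24 h at 37 °C. Iodide-induced fluorescence quench recorded for 7 s after I^− injection; response as 1−F/F0, EC50 from concentration plot.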

CFTR ΔF508 = target: T2, CFTR ΔF508 (Homo sapiens, UniProt P13569, DEL508-508); assay: TECC assay, primary bronchial epithelial cells from CF patients homozygous for CFTR ΔF508; format: cell-based; conditions: for ΔIsc / Current increase: TECC assay; for Current increase: difference between ΔIsc with compound and ΔIsc DMSO (baseline); for EC50: primary bronchial epithelial cells, CFTR ΔF508, several values in a cell = repeat determinations
T2 construct: host or cells: primary bronchial epithelial cells from CF patients homozygous for ΔF508, pre-treated with VX809
Procedure: 7.2.1. Primary Bronchial Epithelial Cells Protocol
The TECC (Tranepithelial Clamp Circuit, EP-design) assay measures the functionality of the cystic fibrosis Transmembrane Conductance regulator (CFTR) by measuring the short circuit current (ISC) generated over the basolateral and apical membrane of lung epithelial cells. In TECC the transepithelial potential PD and transepithelial resistance (Rt) are measured in an open circuit and transformed to ISC using Ohm's law. 24 wells can be measured simultaneously allowing a higher throughput compared to Ussing chambers.
For this purpose, bronchial epithelial cells isolated from CF patients homozygous for the CFTR ΔF508 mutation (hAEC-CF, Epithelix) are plated on type IV collagen-coated Transwell supports (Costar). Human airway epithelia are generated by provision of an air-liquid interface for 21 days to form well-differentiated polarized cultures that resemble in vivo pseudo-stratified ciliated epithelium (Fulcher et al., 2005). In the case of the homozygous ΔF508 CFTR samples, the differentiated cells are treated with 3 μM VX809 (2626 South Loop West, Suite 225, Houston, Tex. 77054 USA, Cat n#51565) to allow sufficient expression of properly folded CFTR protein on the membrane (48 hours basolateral treatment and 24 hours apical treatment), prior to electrophysiological recordings. […] G551D/ΔF508, differentiated cells are used as such for the recordings.
Information on the compounds can be retrieved on the homozygous ΔF508 CFTR samples looking at increased CFTR activity when compounds are added in an acute mode or in a chronic mode. On G551D/ΔF508 CFTR heterozygous samples compounds are added in an acute mode to the differentiated cells.
For the acute mode, for electrophysiological recording, the human airway epithelia are mounted in the TECC heating plate for electrophysiological measurement and kept at 37° C. The epithelia are bathed in a NaCl-Ringer solution (120 mM NaCl, 25 mM NaHCO3, 1.2 mM CaCl2, 1.2 mM MgCl2, 0.8 mM KH2PO4, 0.8 mM K2HPO4, pH 7.4, 5 mM glucose) on both the basolateral and apical sides. Apical amiloride is used to inhibit the endogenous ENaC currents while forkolin is applied on both apical and basolateral side to stimulate CFTR. After forskolin triggering, compounds are added on both sides to test their potential for increasing CFTR gating. Measurements are done during a 20 minute timeframe with recordings every 2 minutes. The increase in ISC is used as a measure for the increased CFTR activity, EC50 values can be generated by measuring impact of different concentrations of compound on ISC on primary cells, for this purpose each transwell is treated with a different compound concentration. Inh-172, an inhibitor specific for CFTR, is used to test the specificity of the tested compounds.
For the chronic mode, the differentiated cells are treated with 3 μM VX809 (2626 South Loop West, Suite 225, Houston, Tex. 77054 USA, Cat n#51565) and potentiator compounds at different concentrations (48 hours basolateral treatment and 24 hours apical treatment), prior to electrophysiological recordings. For electrophysiological recording, the human airway epithelia are mounted in the TECC heating plate for electrophysiological measurement and kept at 37° C. […]

T1 sequence (P13569 whole entry G551D): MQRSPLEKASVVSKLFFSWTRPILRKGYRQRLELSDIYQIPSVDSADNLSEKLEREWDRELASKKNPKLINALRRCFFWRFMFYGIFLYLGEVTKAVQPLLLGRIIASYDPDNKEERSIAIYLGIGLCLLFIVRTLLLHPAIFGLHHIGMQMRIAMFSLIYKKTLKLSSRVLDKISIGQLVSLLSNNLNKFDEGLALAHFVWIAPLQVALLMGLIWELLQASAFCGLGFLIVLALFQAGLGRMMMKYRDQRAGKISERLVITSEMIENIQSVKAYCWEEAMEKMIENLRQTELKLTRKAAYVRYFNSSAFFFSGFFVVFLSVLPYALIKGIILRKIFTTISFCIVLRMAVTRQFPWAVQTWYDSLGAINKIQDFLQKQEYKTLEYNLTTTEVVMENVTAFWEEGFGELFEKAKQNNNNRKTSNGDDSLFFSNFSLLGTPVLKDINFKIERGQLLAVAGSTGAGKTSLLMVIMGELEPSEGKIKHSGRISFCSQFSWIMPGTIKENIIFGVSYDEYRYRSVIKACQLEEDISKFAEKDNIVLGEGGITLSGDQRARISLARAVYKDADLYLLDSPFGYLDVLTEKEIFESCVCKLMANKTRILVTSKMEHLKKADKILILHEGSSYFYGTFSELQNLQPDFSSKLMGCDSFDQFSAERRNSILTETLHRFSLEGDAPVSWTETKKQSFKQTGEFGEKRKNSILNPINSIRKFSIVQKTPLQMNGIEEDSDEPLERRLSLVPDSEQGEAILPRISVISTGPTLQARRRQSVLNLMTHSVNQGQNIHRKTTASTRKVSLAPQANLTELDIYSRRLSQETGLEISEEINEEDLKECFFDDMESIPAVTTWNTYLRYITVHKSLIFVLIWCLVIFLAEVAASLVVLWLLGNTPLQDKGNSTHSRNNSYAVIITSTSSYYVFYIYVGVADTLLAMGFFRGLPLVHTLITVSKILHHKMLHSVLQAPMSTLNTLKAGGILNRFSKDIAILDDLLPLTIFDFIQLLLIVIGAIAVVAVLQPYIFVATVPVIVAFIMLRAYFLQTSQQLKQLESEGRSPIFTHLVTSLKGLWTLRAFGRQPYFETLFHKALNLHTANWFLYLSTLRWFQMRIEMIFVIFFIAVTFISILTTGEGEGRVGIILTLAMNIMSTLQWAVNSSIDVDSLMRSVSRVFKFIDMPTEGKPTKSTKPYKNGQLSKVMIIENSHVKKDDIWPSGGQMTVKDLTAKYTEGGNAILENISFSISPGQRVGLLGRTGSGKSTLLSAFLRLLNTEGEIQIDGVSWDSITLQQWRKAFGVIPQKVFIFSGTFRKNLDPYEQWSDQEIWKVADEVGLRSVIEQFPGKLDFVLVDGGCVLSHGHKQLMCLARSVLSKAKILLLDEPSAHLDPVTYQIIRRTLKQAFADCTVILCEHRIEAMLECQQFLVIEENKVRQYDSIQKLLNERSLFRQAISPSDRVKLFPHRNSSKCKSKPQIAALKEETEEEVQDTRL
T2 sequence (P13569 with tags, fused parts or gaps DEL508-508): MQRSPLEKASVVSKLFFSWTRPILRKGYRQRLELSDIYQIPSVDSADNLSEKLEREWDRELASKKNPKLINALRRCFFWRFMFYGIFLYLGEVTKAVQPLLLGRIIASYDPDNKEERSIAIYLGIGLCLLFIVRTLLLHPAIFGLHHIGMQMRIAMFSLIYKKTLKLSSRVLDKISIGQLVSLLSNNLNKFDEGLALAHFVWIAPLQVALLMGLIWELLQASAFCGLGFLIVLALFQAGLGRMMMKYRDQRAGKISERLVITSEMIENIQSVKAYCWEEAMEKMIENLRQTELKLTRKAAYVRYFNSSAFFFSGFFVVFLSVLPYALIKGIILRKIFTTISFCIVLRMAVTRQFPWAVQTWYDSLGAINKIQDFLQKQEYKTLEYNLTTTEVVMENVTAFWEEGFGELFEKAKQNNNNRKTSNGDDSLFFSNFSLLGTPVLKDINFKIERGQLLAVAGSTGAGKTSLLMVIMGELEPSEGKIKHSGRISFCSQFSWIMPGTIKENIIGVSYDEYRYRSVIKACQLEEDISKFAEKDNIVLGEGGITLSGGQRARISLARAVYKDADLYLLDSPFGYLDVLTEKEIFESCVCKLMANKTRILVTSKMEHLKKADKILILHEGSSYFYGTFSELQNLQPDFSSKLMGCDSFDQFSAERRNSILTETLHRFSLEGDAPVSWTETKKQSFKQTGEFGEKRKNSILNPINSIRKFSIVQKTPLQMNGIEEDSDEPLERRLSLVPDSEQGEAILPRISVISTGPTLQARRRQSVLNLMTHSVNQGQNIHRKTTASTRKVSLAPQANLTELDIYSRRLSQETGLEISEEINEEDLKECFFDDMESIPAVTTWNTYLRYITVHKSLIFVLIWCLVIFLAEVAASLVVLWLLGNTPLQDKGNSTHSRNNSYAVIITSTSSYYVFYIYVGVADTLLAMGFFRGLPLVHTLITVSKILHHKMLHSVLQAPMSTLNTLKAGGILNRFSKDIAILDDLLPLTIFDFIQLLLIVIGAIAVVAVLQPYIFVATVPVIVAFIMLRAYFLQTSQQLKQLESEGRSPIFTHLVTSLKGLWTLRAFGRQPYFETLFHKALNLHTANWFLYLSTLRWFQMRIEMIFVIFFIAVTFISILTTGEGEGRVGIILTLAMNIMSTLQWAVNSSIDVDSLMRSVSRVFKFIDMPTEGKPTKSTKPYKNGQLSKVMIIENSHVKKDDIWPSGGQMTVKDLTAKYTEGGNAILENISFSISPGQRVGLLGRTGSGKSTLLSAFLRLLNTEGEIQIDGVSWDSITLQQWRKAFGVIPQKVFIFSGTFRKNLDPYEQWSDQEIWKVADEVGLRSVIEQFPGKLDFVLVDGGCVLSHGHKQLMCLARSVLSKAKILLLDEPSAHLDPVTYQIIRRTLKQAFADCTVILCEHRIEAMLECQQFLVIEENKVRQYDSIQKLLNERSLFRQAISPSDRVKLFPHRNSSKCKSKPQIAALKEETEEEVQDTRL

Structure (SMILES)	EC50 (CFTR G551D mutant) [nM]	ΔIsc (CFTR ΔF508; compound at 50 nM (Table XV)) [μA/cm^2]	ΔIsc (CFTR ΔF508; compound at 50 nM (Table XVI)) [μA/cm^2]	Current increase (CFTR ΔF508; compound at 50 nM) [μA/cm^2]	ΔIsc (CFTR ΔF508; compound at 100 nM (Table XVI)) [μA/cm^2]	ΔIsc (CFTR ΔF508; compound at 200 nM (Table XVI)) [μA/cm^2]	ΔIsc (CFTR ΔF508; compound at 3 μM) [μA/cm^2]	Current increase (CFTR ΔF508; compound at 3 μM) [μA/cm^2]	activity on the CFTR protein in TECC assay (ΔISC vs DMSO baseline) (CFTR ΔF508; at 3 μM, or 50 nM, or 50/100/200 nM)	EC50 (CFTR ΔF508)
CC1(C)Cc2c(sc(NC(=O)c3ccn[nH]3)c2C(N)=O)C(C)(C)O1 [Compound 2, N-(3-carbamoyl-5,5,7,7-tetramethyl-5,7-dihydro-4H-thieno[2,3-c]pyran-2-yl)-1H-pyrazole-5-carboxamide]	500	4.5996	4.5996	4.9244	4.9327	5.0457	10.9207	11.6634	shows an activity	37 nM
CC1(C)Cc2c(sc(NC(=O)C3(O)CC3)c2C(N)=O)C(C)(C)O1 [Compound 4, 2-(1-hydroxycyclopropanecarboxamido)-5,5,7,7-tetramethyl-5,7-dihydro-4H-thieno[2,3-c]pyran-3-carboxamide]	1340	–	–	–	–	–	4.6728	5.1939	–	–
CC1(C)Cc2c(sc(NC(=O)C3(CO)CC3)c2C(N)=O)C(C)(C)O1 [Compound 9, 2-(1-(hydroxymethyl)cyclopropanecarboxamido)-5,5,7,7-tetramethyl-5,7-dihydro-4H-thieno[2,3-c]pyran-3-carboxamide]	1000	–	–	–	–	–	–	–	–	237 nM and 65 nM
CC1(C)Cc2c(sc(NC(=O)C(C)(C)CO)c2C(N)=O)C(C)(C)O1 [Compound 10, 2-(3-hydroxy-2,2-dimethylpropanamido)-5,5,7,7-tetramethyl-5,7-dihydro-4H-thieno[2,3-c]pyran-3-carboxamide]	2650	–	–	–	–	–	3.9356	4.4567	–	–
